{"source": "patent US20230226005A1", "about": "“Methods of Treating, Ameliorating, Shortening Duration, and/or Reversing Symptoms and/or Complications of a Coronavirus Infection” (Yale University, priority 2020, published 2023)", "type_in_all_cases": "in vivo", "key": {"[1]": {"tested_on": "SARS-CoV-2", "assay": "Phase IIa double-blind placebo-controlled study, camostat mesylate 200 mg four times daily for seven days: viral load (log10) by COVID-19 RT-PCR of nasopharyngeal swab and saliva", "conditions": "for viral load (log10) Mean / viral load (log10) Median / change in viral load from baseline, Mean / change in viral load from baseline, Median: S gene; for viral load Camostat LSMean Change (SE) / viral load change Difference (SE) between treatment groups: ANCOVA linear mixed model, n = 57; for viral load change Difference (SE) between treatment groups: placebo minus camostat"}, "[2]": {"tested_on": "COVID-19 infection", "assay": "Phase IIa study: chest/respiratory-family symptom score"}, "[3]": {"tested_on": "COVID-19 infection", "assay": "Phase IIa study: smell/taste-family symptom score", "conditions": "for smell/taste-family symptoms, Fitzmaurice mixed effects model, Effect: Camostat vs Placebo"}, "[4]": {"conditions": "visit 3 (day 4), listed as Camostat"}}}
{"smiles": "CN(C)C(=O)COC(=O)Cc1ccc(OC(=O)c2ccc(NC(=N)N)cc2)cc1", "note": "[camostat, 4-[[4-[(Aminoiminomethyl)amino]benzoyl]oxy]benzeneacetic acid 2-(dimethylamino)-2-oxoethyl ester]", "values": [{"measurement": "viral load (log10) Mean", "setting": "[1]; visit 2 (day 2)", "value": 3.04, "unit": "log10"}, {"measurement": "viral load (log10) Median", "setting": "[1]; visit 2 (day 2)", "value": 3.22, "unit": "log10"}, {"measurement": "change in viral load from baseline, Mean", "setting": "[1]; visit 3 (day 4)", "value": "−2.06", "unit": "log10"}, {"measurement": "change in viral load from baseline, Median", "setting": "[1]; visit 3 (day 4)", "value": "−1.94", "unit": "log10"}, {"measurement": "viral load (log10) Mean", "setting": "[1]; visit 3 (day 4)", "value": 2.42, "unit": "log10"}, {"measurement": "viral load (log10) Median", "setting": "[1]; visit 3 (day 4)", "value": 1.01, "unit": "log10"}, {"measurement": "change in viral load from baseline, Mean", "setting": "[1]; visit 4 (day 6)", "value": "−2.70", "unit": "log10"}, {"measurement": "change in viral load from baseline, Median", "setting": "[1]; visit 4 (day 6)", "value": "−2.41", "unit": "log10"}, {"measurement": "viral load (log10) Mean", "setting": "[1]; visit 4 (day 6)", "value": 1.48, "unit": "log10"}, {"measurement": "viral load (log10) Median", "setting": "[1]; visit 4 (day 6)", "value": 0.00, "unit": "log10"}, {"measurement": "change in viral load from baseline, Mean", "setting": "[1]; visit 5 (day 14)", "value": "−4.20", "unit": "log10"}, {"measurement": "change in viral load from baseline, Median", "setting": "[1]; visit 5 (day 14)", "value": "−4.28", "unit": "log10"}, {"measurement": "viral load (log10) Mean", "setting": "[1]; visit 5 (day 14)", "value": 0.27, "unit": "log10"}, {"measurement": "viral load (log10) Median", "setting": "[1]; visit 5 (day 14)", "value": 0.00, "unit": "log10"}, {"measurement": "change in viral load from baseline, Mean", "setting": "[1]; visit 6 (day 28)", "value": "−4.37", "unit": "log10"}, {"measurement": "change in viral load from baseline, Median", "setting": "[1]; visit 6 (day 28)", "value": "−4.88", "unit": "log10"}, {"measurement": "viral load (log10) Mean", "setting": "[1]; visit 6 (day 28)", "value": 0.00, "unit": "log10"}, {"measurement": "viral load (log10) Median", "setting": "[1]; visit 6 (day 28)", "value": 0.00, "unit": "log10"}, {"measurement": "viral load Camostat LSMean Change (SE)", "setting": "[1]; visit 2 (day 2)", "value": "−1.10 (0.30) log10"}, {"measurement": "viral load change Difference (SE) between treatment groups", "setting": "[1]; visit 2 (day 2)", "value": "−0.01 (0.42) log10"}, {"measurement": "viral load Camostat LSMean Change (SE)", "setting": "[1]; visit 3 (day 4)", "value": "−1.94", "unit": "log10"}, {"measurement": "viral load Camostat LSMean Change (SE)", "setting": "[1]; [4]", "value": "−1.94 (0.32) log10"}, {"measurement": "viral load change Difference (SE) between treatment groups", "setting": "[1]; visit 3 (day 4)", "value": "−0.69", "unit": "log10"}, {"measurement": "viral load change Difference (SE) between treatment groups", "setting": "[1]; [4]", "value": "−0.69 (0.45) log10"}, {"measurement": "viral load Camostat LSMean Change (SE)", "setting": "[1]; visit 4 (day 6)", "value": "−3.22 (0.46) log10"}, {"measurement": "viral load change Difference (SE) between treatment groups", "setting": "[1]; visit 4 (day 6)", "value": "−0.39 (0.63) log10"}, {"measurement": "chest/respiratory-family symptom score, Fitzmaurice model, Camostat", "setting": "[2]; day 0", "value": "7.5 (0.7)"}, {"measurement": "chest/respiratory-family symptom score, Fitzmaurice model, Camostat", "setting": "[2]; day 1", "value": "7.7 (0.8)"}, {"measurement": "chest/respiratory-family symptom score, Fitzmaurice model, Effect (placebo vs camostat)", "setting": "[2]; day 1", "value": "−0.1 (0.9)"}, {"measurement": "chest/respiratory-family symptom score, Fitzmaurice model, Camostat", "setting": "[2]; day 2", "value": "7.6 (0.8)"}, {"measurement": "chest/respiratory-family symptom score, Fitzmaurice model, Effect (placebo vs camostat)", "setting": "[2]; day 2", "value": "−0.5 (0.9)"}, {"measurement": "chest/respiratory-family symptom score, Fitzmaurice model, Camostat", "setting": "[2]; day 3", "value": "7.5 (0.8)"}, {"measurement": "chest/respiratory-family symptom score, Fitzmaurice model, Effect (placebo vs camostat)", "setting": "[2]; day 3", "value": "−0.4 (0.9)"}, {"measurement": "chest/respiratory-family symptom score, Fitzmaurice model, Camostat", "setting": "[2]; day 4", "value": "8 (0.8)"}, {"measurement": "chest/respiratory-family symptom score, Fitzmaurice model, Effect (placebo vs camostat)", "setting": "[2]; day 4", "value": "−1.7 (0.9)"}, {"measurement": "chest/respiratory-family symptom score, Fitzmaurice model, Camostat", "setting": "[2]; day 5", "value": "7 (0.8)"}, {"measurement": "chest/respiratory-family symptom score, Fitzmaurice model, Effect (placebo vs camostat)", "setting": "[2]; day 5", "value": "−0.8 (0.9)"}, {"measurement": "chest/respiratory-family symptom score, Fitzmaurice model, Camostat", "setting": "[2]; day 6", "value": "6.6 (0.8)"}, {"measurement": "chest/respiratory-family symptom score, Fitzmaurice model, Effect (placebo vs camostat)", "setting": "[2]; day 6", "value": "−0.7 (0.9)"}, {"measurement": "chest/respiratory-family symptom score, Fitzmaurice model, Camostat", "setting": "[2]; day 7", "value": "6.2 (0.8)"}, {"measurement": "chest/respiratory-family symptom score, Fitzmaurice model, Effect (placebo vs camostat)", "setting": "[2]; day 7", "value": "−0.7 (0.9)"}, {"measurement": "chest/respiratory-family symptom score, Fitzmaurice model, Camostat", "setting": "[2]; day 8", "value": "5.7 (0.8)"}, {"measurement": "chest/respiratory-family symptom score, Fitzmaurice model, Effect (placebo vs camostat)", "setting": "[2]; day 8", "value": "−1.4 (0.9)"}, {"measurement": "chest/respiratory-family symptom score, Fitzmaurice model, Camostat", "setting": "[2]; day 9", "value": "5.4 (0.8)"}, {"measurement": "chest/respiratory-family symptom score, Fitzmaurice model, Effect (placebo vs camostat)", "setting": "[2]; day 9", "value": "−1.2 (0.9)"}, {"measurement": "chest/respiratory-family symptom score, Fitzmaurice model, Camostat", "setting": "[2]; day 10", "value": "4.9 (0.8)"}, {"measurement": "chest/respiratory-family symptom score, Fitzmaurice model, Effect (placebo vs camostat)", "setting": "[2]; day 10", "value": "−1 (0.9)"}, {"measurement": "chest/respiratory-family symptom score, Fitzmaurice model, Camostat", "setting": "[2]; day 11", "value": "4.2 (0.8)"}, {"measurement": "chest/respiratory-family symptom score, Fitzmaurice model, Effect (placebo vs camostat)", "setting": "[2]; day 11", "value": "−0.5 (0.9)"}, {"measurement": "chest/respiratory-family symptom score, Fitzmaurice model, Camostat", "setting": "[2]; day 12", "value": "4 (0.8)"}, {"measurement": "chest/respiratory-family symptom score, Fitzmaurice model, Effect (placebo vs camostat)", "setting": "[2]; day 12", "value": "−1 (0.9)"}, {"measurement": "chest/respiratory-family symptom score, Fitzmaurice model, Camostat", "setting": "[2]; day 13", "value": "3.9 (0.9)"}, {"measurement": "chest/respiratory-family symptom score, Fitzmaurice model, Effect (placebo vs camostat)", "setting": "[2]; day 13", "value": "−1.1 (0.9)"}, {"measurement": "chest/respiratory-family symptom score, Fitzmaurice model, Camostat", "setting": "[2]; day 14", "value": "3.5 (0.9)"}, {"measurement": "chest/respiratory-family symptom score, Fitzmaurice model, Effect (placebo vs camostat)", "setting": "[2]; day 14", "value": "−0.8 (0.9)"}, {"measurement": "smell/taste-family symptoms, Fitzmaurice mixed effects model, Camostat", "setting": "[3]; Day 0", "value": "1.4 (0.2)"}, {"measurement": "smell/taste-family symptoms, Fitzmaurice mixed effects model, Camostat", "setting": "[3]; Day 1", "value": "1.4 (0.2)"}, {"measurement": "smell/taste-family symptoms, Fitzmaurice mixed effects model, Effect", "setting": "[3]; Day 1", "value": "0.5 (0.3)"}, {"measurement": "smell/taste-family symptoms, Fitzmaurice mixed effects model, Camostat", "setting": "[3]; Day 2", "value": "1.4 (0.2)"}, {"measurement": "smell/taste-family symptoms, Fitzmaurice mixed effects model, Effect", "setting": "[3]; Day 2", "value": "0.7 (0.3)"}, {"measurement": "smell/taste-family symptoms, Fitzmaurice mixed effects model, Camostat", "setting": "[3]; Day 3", "value": "1.3 (0.2)"}, {"measurement": "smell/taste-family symptoms, Fitzmaurice mixed effects model, Effect", "setting": "[3]; Day 3", "value": "1 (0.3)"}, {"measurement": "smell/taste-family symptoms, Fitzmaurice mixed effects model, Camostat", "setting": "[3]; Day 4", "value": "1.2 (0.2)"}, {"measurement": "smell/taste-family symptoms, Fitzmaurice mixed effects model, Effect", "setting": "[3]; Day 4", "value": "1 (0.3)"}, {"measurement": "smell/taste-family symptoms, Fitzmaurice mixed effects model, Camostat", "setting": "[3]; Day 5", "value": "1.1 (0.2)"}, {"measurement": "smell/taste-family symptoms, Fitzmaurice mixed effects model, Effect", "setting": "[3]; Day 5", "value": "1.2 (0.3)"}, {"measurement": "smell/taste-family symptoms, Fitzmaurice mixed effects model, Camostat", "setting": "[3]; Day 6", "value": "1 (0.2)"}, {"measurement": "smell/taste-family symptoms, Fitzmaurice mixed effects model, Effect", "setting": "[3]; Day 6", "value": "0.7 (0.3)"}, {"measurement": "smell/taste-family symptoms, Fitzmaurice mixed effects model, Camostat", "setting": "[3]; Day 7", "value": "0.8 (0.2)"}, {"measurement": "smell/taste-family symptoms, Fitzmaurice mixed effects model, Effect", "setting": "[3]; Day 7", "value": "0.7 (0.3)"}, {"measurement": "smell/taste-family symptoms, Fitzmaurice mixed effects model, Camostat", "setting": "[3]; Day 8", "value": "0.8 (0.2)"}, {"measurement": "smell/taste-family symptoms, Fitzmaurice mixed effects model, Effect", "setting": "[3]; Day 8", "value": "0.8 (0.3)"}, {"measurement": "smell/taste-family symptoms, Fitzmaurice mixed effects model, Camostat", "setting": "[3]; Day 9", "value": "0.9 (0.2)"}, {"measurement": "smell/taste-family symptoms, Fitzmaurice mixed effects model, Effect", "setting": "[3]; Day 9", "value": "0.6 (0.3)"}, {"measurement": "smell/taste-family symptoms, Fitzmaurice mixed effects model, Camostat", "setting": "[3]; Day 10", "value": "0.9 (0.2)"}, {"measurement": "smell/taste-family symptoms, Fitzmaurice mixed effects model, Effect", "setting": "[3]; Day 10", "value": "0.5 (0.3)"}, {"measurement": "smell/taste-family symptoms, Fitzmaurice mixed effects model, Camostat", "setting": "[3]; Day 11", "value": "0.9 (0.2)"}, {"measurement": "smell/taste-family symptoms, Fitzmaurice mixed effects model, Effect", "setting": "[3]; Day 11", "value": "0.3 (0.3)"}, {"measurement": "smell/taste-family symptoms, Fitzmaurice mixed effects model, Camostat", "setting": "[3]; Day 12", "value": "0.9 (0.2)"}, {"measurement": "smell/taste-family symptoms, Fitzmaurice mixed effects model, Effect", "setting": "[3]; Day 12", "value": "0.2 (0.3)"}, {"measurement": "smell/taste-family symptoms, Fitzmaurice mixed effects model, Camostat", "setting": "[3]; Day 13", "value": "0.7 (0.3)"}, {"measurement": "smell/taste-family symptoms, Fitzmaurice mixed effects model, Effect", "setting": "[3]; Day 13", "value": "0.4 (0.3)"}, {"measurement": "smell/taste-family symptoms, Fitzmaurice mixed effects model, Camostat", "setting": "[3]; Day 14", "value": "0.8 (0.3)"}, {"measurement": "smell/taste-family symptoms, Fitzmaurice mixed effects model, Effect", "setting": "[3]; Day 14", "value": "0.4 (0.3)"}]}
